The test system of one data set is T24. The experiment in a line: MTT test, cytotoxic activity on non-clonogenic cell lines. It is filed as cell-based. The note with it: Homo sapiens, T-24; T24; 10^−5 M; 72 hours incubation; MTT; mean value; read-out: mean optical density, expressed as percentage relative to the mean optical density under the control condition (100%). The method, boiled down: (§1)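 Human bladder cancer lines were seeded at 20 000–50 000 cells/ml and, after 24 h, exposed to compounds at 10^−5 to 10^−10 M against a solvent control. Formazan was dissolved in DMSO and viability was read by spectrophotometric optical density.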

In the next data set the test system is J82. The data set is described as above. Conditions: Homo sapiens, 10^−5 M, 72 hours incubation, MTT, mean value, read-out: mean optical density, expressed as percentage relative to the mean optical density under the control condition (100%). The data set is classed as cell-based. The gist of the method:
as §1

A further data set deals with SW1088. Described as above. The data set is classed as cell-based. The note with it: Homo sapiens, 10^−5 M, 72 hours incubation, MTT, mean value, read-out: mean optical density, expressed as percentage relative to the mean optical density under the control condition (100%). The method, boiled down:
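Human astrocytoma SW1088 cells seeded, grown 24 h at 37° C, 5% CO2, then exposed to compounds at 10^−5 to 10^−10 M versus solvent control. Viability by MTT reduction: 3 h MTT incubation, formazan dissolved in DMSO and read by spectrophotometry.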

The nature of data set [1]: Determination of the maximum tolerated dose (MTD). The note with it: B6D2F1/Jico, mouse, in vivo, ip; single intraperitoneal administration, doses 2.5 to 160 mg/kg, survival over 14 days. The gist of the method: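 Mice were 4- to 6-week-old B6D2F1/Jico. They received a single intraperitoneal dose of 2.5 to 160 mg/kg, and survival and body weight were followed for 14 days. MTD is given in mg/kg and is capped at 160 mg/kg by default.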

The test system of another data set is T-47D. The experiment in a line: MTT test, cytotoxic activity on non-clonogenic cell lines. The data set is classed as cell-based. Conditions: Homo sapiens, T47D; T-47D; 10^−5 M; 72 hours incubation; MTT; mean value; read-out: mean optical density, expressed as percentage relative to the mean optical density under the control condition (100%). The gist of the method: (§2)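 Compounds span 10^−5 to 10^−10 M, with solvent-treated wells as control, and the formazan is quantified by absorbance after DMSO solubilization.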

Another data set has as its system U-87MG. Described as above. The data set is classed as cell-based. Conditions: Homo sapiens; U-87MG; 10^−5 M; 72 hours incubation; MTT; mean value; read-out: mean optical density, expressed as percentage relative to the mean optical density under the control condition (100%). The method, boiled down:
as §2

The next data set relates to HCT-15. The description is as above. It is filed as cell-based. Conditions: Homo sapiens, HCT-16, 10^−5 M, 72 hours incubation, MTT, mean value, read-out: mean optical density, expressed as percentage relative to the mean optical density under the control condition (100%). The method, boiled down:
as §2

The test system of another data set is U-373MG. Described as above. The data set is classed as cell-based. Conditions: Homo sapiens, U373 MG; U-373MG; 10^−5 M; 72 hours incubation; MTT; mean value; read-out: mean optical density, expressed as percentage relative to the mean optical density under the control condition (100%). The method, boiled down: as §2
A further data set relates to LoVo. The data set is described as above. The data set is classed as cell-based. Conditions: Homo sapiens, 10^−5 M, 72 hours incubation, MTT, mean value, read-out: mean optical density, expressed as percentage relative to the mean optical density under the control condition (100%). The method, boiled down:
as §2

The next data set has as its system A549. Described as above. It is filed as cell-based. The note with it: Homo sapiens, 10^−5 M, 72 hours incubation, MTT, mean value, read-out: mean optical density, expressed as percentage relative to the mean optical density under the control condition (100%). The method, boiled down:
as §2

A further data set has as its system A-427. Described as above. It is filed as cell-based. Conditions: Homo sapiens, 10^−5 M, 72 hours incubation, MTT, mean value, read-out: mean optical density, expressed as percentage relative to the mean optical density under the control condition (100%). The method, boiled down:
as §2

A further data set has as its system PC-3. Described as above. The data set is classed as cell-based. Conditions: Homo sapiens, 10^−5 M, 72 hours incubation, MTT, mean value, read-out: mean optical density, expressed as percentage relative to the mean optical density under the control condition (100%). The gist of the method:
as §2

In a further data set the test system is MCF7. Described as above. The note with it: Homo sapiens, 10^−5 M, 72 hours incubation, MTT, mean value, read-out: mean optical density, expressed as percentage relative to the mean optical density under the control condition (100%). It is filed as cell-based. The gist of the method:
as §2

For the compound `CC(=O)Oc1ccc(-c2cn(C)c3c(OC(C)=O)ccc(OC(C)=O)c3c2=O)cc1` [CRL8460, 5,8-Diacetoxy-3-[4-(acetoxy)phenyl]-1-methyl-1,4-dihydro-4-quinolmone acetate], the viability at 10 µM in the data set on T24 amounted to 14.2%; with J82, 45.7%; in the data set on SW1088 it was 65.7%; in the data set on T-47D, 56.2%; with U-87MG it was 71.5%; in the data set on HCT-15, 53.7%. For the same compound, the viability at 10 µM with U-373MG came to 52.2%; in the data set on LoVo, 25.5%; in the data set on A549, 43.1%; with A-427, 24.9%; with PC-3 it was 35.2%; with MCF7, 35%. The same compound returned an MTD at 14 day in data set [1] of more than 160 mg/kg.
Take `COc1ccc(-c2cn(C)c3cc(OC)cc(N)c3c2=O)cc1` [CRL8461, 5-Amino-7-methoxy-3-(4-methoxyphenyl)-1-methyl-1,4-dihydro-4-quinolinone]: the viability at 10 µM in the data set on T24 came out at 107%; in the data set on J82, 94.9%; in the data set with SW1088, 91.9%; in the data set on T-47D, 51.9%; in the data set on U-87MG, 77.2%; in the data set with HCT-15, 88.5%. The viability at 10 µM with U-373MG amounted to 91.6%; with LoVo, 92.7%; with A549 it was 99.7%; with A-427, 90.5%; with PC-3 it was 91.9%; in the data set on MCF7, 68.2%. In addition, the MTD at 14 day in [1] is more than 160 mg/kg.
For the compound `COc1ccc(-c2cn(C)c3cc(OC)cc(NCCN(C)C)c3c2=O)cc1` [CRL8462, 5-{[(Dimethylamino)ethyl]amino}-7-methoxy-3-(4-methoxyphenyl)-1-methyl-1,4-dihydro-4-quinolinone], the viability at 10 µM with T24 was 111%; with J82, 105%; in the data set with SW1088, 105%; in the data set on T-47D it was 92.2%; in the data set on U-87MG, 195%; in the data set with HCT-15 it was 77.4%. Also, the viability at 10 µM with U-373MG stood at 111%; with LoVo, 84.6%; with A549 it was 86.8%; with A-427, 77.1%; in the data set on PC-3, 84%; with MCF7, 89.4%. In [1], this compound showed an MTD at 14 day of more than 160 mg/kg.
As for `COc1ccc(-c2cn(C)c3cc(OC)ccc3c2=O)cc1` [CRL8464, 7-Methoxy-3-(4-methoxyphenyl)-1-methyl-1,4-dihydro-4-quinolinone], the viability at 10 µM with T24 came out at 105%; with J82, 95.4%; in the data set with SW1088, 95.6%; in the data set on T-47D, 110%; in the data set with U-87MG, 105%; in the data set on HCT-15 it was 111%. The viability at 10 µM came to 118% with U-373MG; 101% in the data set on LoVo; 91.3% in the data set with A549; 102% with A-427; 97.1% in the data set on PC-3; 99.8% in the data set with MCF7. Further, the MTD at 14 day in data set [1] is more than 160 mg/kg.
On to `CCOC(=O)Cn1cc(-c2ccc(OC)cc2)c(=O)c2ccc(OC)cc21` [CRL8465, Ethyl 2-[7-methoxy-3-(4-methoxyphenyl)-4-oxo-1,4-dihydro-1-quinolinyl]acetate], for which the viability at 10 µM came to 91.2% in the data set on T24; 93.6% in the data set on J82; 89.8% in the data set with SW1088; 94.4% in the data set on T-47D; 105% with U-87MG; 165% in the data set with HCT-15. The viability at 10 µM in the data set on U-373MG turned out to be 100%; in the data set with LoVo it was 110%; in the data set with A549, 80.1%; in the data set on A-427, 85.4%; in the data set on PC-3, 96.9%; with MCF7, 94.3%. This compound also gave an MTD at 14 day in data set [1] of more than 160 mg/kg.
In the case of `CCN(CC)C(=O)Cn1cc(-c2ccc(OC)cc2)c(=O)c2ccc(OC)cc21` [CRL8466, N,N-Diethyl-2-[7-methoxy-3-(4-methoxyphenyl)-4-oxo-1,4-dihydro-1-quinolinyl]acetamide], the viability at 10 µM was determined as 69.5% with T24; 93.1% in the data set on J82; 102% in the data set with SW1088; 95.2% in the data set with T-47D; 97.2% with U-87MG; 96.1% with HCT-15. In addition, the viability at 10 µM in the data set on U-373MG was 59.4%; with LoVo, 98.9%; with A549 it was 101%; in the data set on A-427, 97.5%; with PC-3 it was 102%; in the data set on MCF7, 108%. The compound further returned an MTD at 14 day in data set [1] of more than 160 mg/kg.
In the case of `COc1ccc(-c2cn(CCC#N)c3cc(OC)ccc3c2=O)cc1` [CRL8467, 3-[7-Methoxy-3-(4-methoxyphenyl)-4-oxo-1,4-dihydro-1-quinolinyl]propanenitrile], the viability at 10 µM stood at 94.6% in the data set on T24; 96.3% in the data set on J82; 101% in the data set on SW1088; 100% in the data set with T-47D; 95.3% in the data set on U-87MG; 108% in the data set on HCT-15. Besides, the viability at 10 µM with U-373MG was found to be 108%; with LoVo, 95.8%; with A549, 90.8%; with A-427 it was 90%; in the data set with PC-3, 98.4%; with MCF7, 98.3%. Also, the MTD at 14 day in data set [1] is more than 160 mg/kg.
For the compound `CCOC(=O)CCn1cc(-c2ccc(OC)cc2)c(=O)c2ccc(OC)cc21` [CRL8468, Ethyl 3-[7-methoxy-3-(4-methoxyphenyl)-4-oxo-1,4-dihydro-1-quinolinyl]propanoate], the viability at 10 µM with T24 amounted to 98.5%; with J82, 91.9%; in the data set on SW1088 it was 104%; in the data set with T-47D, 92.2%; in the data set on U-87MG, 92.7%; in the data set on HCT-15, 111%. For the same compound, the viability at 10 µM with U-373MG was determined as 107%; in the data set on LoVo, 97.2%; with A549, 93.6%; in the data set with A-427 it was 69.7%; in the data set with PC-3, 95%; in the data set on MCF7, 79.1%. Also, the MTD at 14 day in data set [1] is more than 160 mg/kg.
Regarding `COc1ccc(-c2cn(CCCC#N)c3cc(OC)ccc3c2=O)cc1` [CRL8470, 4-[7-Methoxy-3-(4-methoxyphenyl)-4-oxo-1,4-dihydro-1-quinolinyl]butanenitrile], the viability at 10 µM was 101% in the data set with T24; 85.6% in the data set with J82; 92.5% with SW1088; 88.8% with T-47D; 97.2% with U-87MG; 95.5% with HCT-15. Also, the viability at 10 µM with U-373MG turned out to be 104%; with LoVo it was 86.6%; in the data set on A549 it was 80.2%; in the data set with A-427, 103%; in the data set with PC-3, 94%; in the data set with MCF7, 92.8%. In data set [1], this compound came in with an MTD at 14 day of more than 160 mg/kg.
Compound `COc1ccc(-c2cn(CCc3nnn[nH]3)c3cc(OC)ccc3c2=O)cc1` [CRL8474, 7-Methoxy-3-(4-methoxyphenyl)-1-[2-(2H-1,2,3,4-tetrazol-5-yl)ethyl]-1,4-dihydro-4-quinolinone] yielded a melting point of 245 to 246 °C.
In the case of `COc1ccc2[nH]cc(-c3ccccc3)c(=O)c2c1` [CRL8488, 6-Methoxy-3-phenyl-1,4-dihydro-4-quinolinone], the melting point lay within 355 to 356 °C.
`COc1cc(OC)c2c(=O)c(-c3ccccc3)cn(C)c2c1` [CRL8489, 5,7-Dimethoxy-3-phenyl-1-methyl-1,4-dihydro-4-quinolinone] came in with a melting point of 179 to 180 °C.
Regarding `COc1ccc(-c2c[nH]c3ccc(OC)cc3c2=O)cc1` [CRL8490, 6-Methoxy-3-(4-methoxyphenyl)-1,4-dihydro-4-quinolinone], the melting point lay within 335 to 336 °C.
Regarding `COc1ccc(-c2c[nH]c3cccc(OC)c3c2=O)cc1` [CRL8491, 5-Methoxy-3-(4-methoxyphenyl)-1,4-dihydro-4-quinolinone], the melting point fell in the range of 215 to 216 °C.

Values taken from patent US6645983B1, “Pharmaceutical compositions comprising 4-quinolones for treating cancers” (Laboratoire L. Lafon, priority 1999, dated 2003).
